# Source: paper PMC5935597 (Bioorganic & medicinal chemistry, 2018)
# Read-outs that look alike come from different tables or passages of the source.
# Assays:
# H. capsulatum [1] = type: cell-based, Histoplasma capsulatum; settings: for activity against H. capsulatum evaluated comparatively at pH 5 and pH 7: pH 5 versus pH 7 (SM-S.2); for times more active than 41F5 against H. capsulatum: relative to 41F5
# [2] = test system: C. neoformans (H99 strain); experiment: microbe, parasite or virus in culture; type: cell-based, Cryptococcus neoformans
# Aspergillus fumigatus = settings: cited from earlier work
# Candida albicans = settings: cited from earlier work
# H. capsulatum [3] = settings: read-out: H. capsulatum IC50; cited from earlier work
# Blastomyces dermatitidis = settings: cited from earlier work
# [4] = test system: C. neoformans (H99 strain); settings: read-out: C. neoformans (H99 strain) IC50; cited from earlier work
compound,measurement,setting,value
O=C(CCC1CCCCC1)Nc1ncc(Cc2ccnc3ccccc23)s1 [Compound 28a],activity against H. capsulatum evaluated comparatively at pH 5 and pH 7,H. capsulatum [1],No significant differences
same,activity against C. neoformans evaluated comparatively at pH 5 and pH 7,[2],No significant differences
Cc1ccc(Oc2ccccc2-c2csc(N=C3NCCCN3)n2)c(C)c1 [Abafungin],activity against Aspergillus fumigatus,Aspergillus fumigatus,active
same,activity against Candida albicans,Candida albicans,active
O=C(Nc1ncc(Cc2cccc3ccsc23)s1)C1CCCCC1 [Compound 17b],times more active than 41F5 against H. capsulatum,H. capsulatum [1],~ 2 times
same,times more active than 41F5 against C. neoformans,[2],~ 2 times
O=C(Nc1ncc(Cc2cccc3c2CCC3)s1)C1CCCCC1 [Compound 26b],times more active than 41F5 against H. capsulatum,H. capsulatum [1],~ 2 times
same,times more active than 41F5 against C. neoformans,[2],~ 2 times
"O=C(Nc1ncc(Cc2cccc3ccccc23)s1)C1CCCCC1 [Compound 41F5, N-[5-(1-naphthalenylmethyl)-2-thiazolyl]cyclohexanecarboxamide]",IC50,H. capsulatum [3],0.4 µM
same,activity against Aspergillus fumigatus,Aspergillus fumigatus,inactive
same,activity against Blastomyces dermatitidis,Blastomyces dermatitidis,inactive
same,IC50,[4],0.4 µM
same,activity against Candida albicans,Candida albicans,inactive
O=C(Nc1ncc(Cc2ccccc2)s1)C1CCCCC1 [B],IC50,H. capsulatum [3],1.6 µM
O=C(CCC1CCCCC1)Nc1ncc(Cc2ccccc2)s1 [C],IC50,H. capsulatum [3],0.7 µM
same,IC50,[4],> 10 µM
O=C(CCC1CCCCC1)Nc1ncc(Cc2ccccn2)s1 [Compound 29a],activity against H. capsulatum evaluated comparatively at pH 5 and pH 7,H. capsulatum [1],No significant differences
same,activity against C. neoformans evaluated comparatively at pH 5 and pH 7,[2],No significant differences
O=C(c1cnc(NC(=O)C2CCCCC2)s1)c1cccc2ccccc12 [Compound 36b],times more active than 41F5 against H. capsulatum,H. capsulatum [1],~ 2 times
O=C(Nc1ncc(Cc2cccnc2)s1)C1CCCCC1 [Compound 31],activity against H. capsulatum evaluated comparatively at pH 5 and pH 7,H. capsulatum [1],No significant differences
same,activity against C. neoformans evaluated comparatively at pH 5 and pH 7,[2],No significant differences
O=C(CCC1CCCCC1)Nc1ncc(Cc2cccc3sccc23)s1 [Compound 22a],times more active than 41F5 against H. capsulatum,H. capsulatum [1],~ 2 times
O=C(CCC1CCCCC1)Nc1ncc(Cc2csc3ccccc23)s1 [Compound 23a],times more active than 41F5 against H. capsulatum,H. capsulatum [1],~ 2 times
O=C(CCC1CCCCC1)Nc1ncc(Cc2cccc3nsnc23)s1 [Compound 20a],activity against H. capsulatum evaluated comparatively at pH 5 and pH 7,H. capsulatum [1],No significant differences
same,activity against C. neoformans evaluated comparatively at pH 5 and pH 7,[2],No significant differences
O=C(Nc1ncc(Cc2cccc3sccc23)s1)C1CCCCC1 [Compound 22b],times more active than 41F5 against H. capsulatum,H. capsulatum [1],~ 2 times
same,times more active than 41F5 against C. neoformans,[2],~ 2 times
same,IC50,"[2]; Cryptococcus neoformans, read-out: C. neoformans (H99 strain) IC50 [±SD]",0.37 µM
same,MIC,"[2]; Cryptococcus neoformans, read-out: C. neoformans (H99 strain) MIC",1.25 µM
O=C(CCC1CCCCC1)Nc1ncc(Cc2cccc3ccccc23)s1 [A],IC50,H. capsulatum [3],0.4 µM
same,IC50,[4],> 10 µM
O=C(CCC1CCCCC1)Nc1ncc(Cc2ccncc2)s1 [Compound 32a],activity against H. capsulatum evaluated comparatively at pH 5 and pH 7,H. capsulatum [1],No significant differences
same,activity against C. neoformans evaluated comparatively at pH 5 and pH 7,[2],No significant differences
